From patent EP1803452A1, “ESTER DERIVATIVE AND PHARMACEUTICAL USE THEREOF” (Japan Tobacco, Inc., priority 2004, dated 2006) come the findings set out here.

The nature of data set [1]: Metabolic stability test in liver S9. Format: in vitro ADME. The following applies: pH 7.4, human liver S9 2 mg protein/mL, LC/MS; for remaining at 10 min: unchanged form after 10 minutes at 37°C, read-out: Remaining rate in human liver S9 (%/10min); for remaining at 1 h: unchanged form after 60 minutes at 37°C, read-out: Remaining rate in human liver S9 (%/60min). On the procedure:
Human liver S9 (final concentration: 2 mg protein/mL), was suspended in 100 mM potassium phosphate buffer (pH 7.4, containing β-nicotinamide adenine dinucleotide phosphate: 1.3 mM, D-glucose-6- phosphate: 3.3 mM, magnesium chloride: 3.3 mM, glucose-6-phosphate dehydrogenase:0.4 U/mL). The suspension was mixed with a solution of a sample dissolved in DMSO. The solution was incubated at 37°C for 0, 10 and 60 minutes, and an acetonitrile containing formic acid (final concentration: 0.1%) was added thereto. The solutions were centrifuged, and the concentration of the sample (unchanged form) in the supernatant was determined by high performance liquid chromatography/mass spectrometry (LC/MS). Based on the data obtained, remaining rate (%) was calculated according to the following equation. Remaining rate(%) = amount of sample 0,10, or 60 minutes after [formula] incubation/amount of sample at zero time after incubation × 100 [formula]
(§1) With respect to the compounds obtained in Working Examples according to the present invention (Compounds 1-1 to 1-115, 2-1, 3-1, 3-2, and 4-1 to 4-4), the results of the remaining rate in human liver S9 and plasma are shown in Tables 28 to 32.

Data set [2] can be described thus: Stability test in buffer (pH 7.4). Format: physicochemical. The following applies: phosphate buffer/acetonitrile 7:3, 100 mM potassium phosphate buffer (pH 7.4) and acetonitrile 7:3 (v/v), LC/MS; for remaining at 10 min: 10 minutes at 37°C, read-out: Buf. remaining rate (%/10min); for remaining at 1 h: 60 minutes at 37°C, read-out: Buf. remaining rate (%/60min). On the procedure: In the tables, Buf. remaining rate was determined by stability test in buffer (pH 7.4) as described below. A sample dissolved in DMSO was mixed with a mixed solution of 100 mM potassium phosphate buffer and acetonitrile in the ratio of 7:3 (v/v). The mixture was incubated at 37°C for 0, 10, and 60 minutes, and acetonitrile containing formic acid (final concentration: 0.1%) was added thereto. The solution was centrifuged, and the concentration of the sample (unchanged form) in the supernatant was determined by high performance liquid chromatography/mass spectrometry (LC/MS). Based on the data obtained, Buf. remaining rate (%) was calculated according to the following equation. Buf.remaining rate(%) = amount of sample 0,10, or 60 minutes after incubation/amount of sample at zero time after incubation × 100 [formula]

The nature of data set [3]: Metabolic stability test in plasma. Format: in vitro ADME, human. The following applies: LC/MS; for remaining at 10 min: unchanged form after 10 minutes at 37°C in human plasma, read-out: Remaining rate in human plasma (%/10min); for remaining at 1 h: unchanged form after 60 minutes at 37°C in human plasma, read-out: Remaining rate in human plasma (%/60min). On the procedure:
A sample dissolved in DMSO was added to plasma of human or animal species (mouse and hamster). The solutions were incubated at 37°C for 0, 10 and 60 minutes, and acetonitrile containing formic acid (final concentration: 0.1%) was added thereto. The solutions were centrifuged, and the concentration of the sample (unchanged form) in the supernatant was determined by high performance liquid chromatography/mass spectrometry (LC/MS). Based on the data obtained, the remaining rate (%) was calculated according to the following equation. Remaining rate(%) = amount of sample 0,10, or 60 minutes after incubation/amount of sample at zero time after incubation × 100 [formula]
as §1

Regarding `COC(=O)c1ccc(OC(=O)CCCc2ccc(NC(=O)c3ccccc3-c3ccc(C(F)(F)F)cc3)c(C(=O)N(C)C)c2)c(C(=O)OC)c1` [Compound 1-33, 4-(4-{3-dimethylcarbamoyl-4-[(4'-trifluoromethylbiphenyl-2-carbonyl)amino]phenyl}butyryloxy)isophthalic acid dimethyl ester], the remaining at 10 min in data set [1] was determined as 0%; in data set [2] it was 98%; in data set [3], 0%. The remaining at 1 h was determined as 0% in data set [1], 102% in data set [2] and 0% in data set [3].
With `COC(=O)c1ccc(OC(=O)CCCc2ccc(NC(=O)c3ccccc3-c3ccc(C(F)(F)F)cc3)c(C(=O)N(C)C)c2)c(C(C)C)c1` [Compound 1-68, 4-[4-(3-dimethylcarbamoyl-4-{(4'-trifluoromethylbiphenyl-2-carbonyl)amino}phenyl)butyryloxy]-3-isopropylbenzoic acid methyl ester], the remaining at 10 min in data set [1] amounted to 11%; in data set [2], 101%; in data set [3], 77%. Also, the remaining at 1 h in data set [1] was 3%; in data set [2], 103%; in data set [3], 18%.
Turning to `COC(=O)c1cc(C)c(OC(=O)CCCc2ccc(NC(=O)c3ccc(C)nc3-c3ccc(C(F)(F)F)cc3)c(C(=O)N(C)C)c2)c(C(F)(F)F)c1` [Compound 1-45, 4-[4-(3-dimethylcarbamoyl-4-([6-methyl-2-(4-trifluoromethylphenyl)pyridine-3-carbonyl]amino}phenyl)butyryloxy]-3-methyl-5-trifluoromethylbenzoic acid methyl ester], the remaining at 10 min in data set [1] is 12%; in data set [2], 101%; in data set [3], 89%. The remaining at 1 h in data set [1] came to 2%; in data set [2], 102%; in data set [3], 48%.
As for `CN(C)C(=O)c1cc(CCCC(=O)Oc2ccc(C(=O)OCCCO)cc2)ccc1NC(=O)c1ccccc1-c1ccc(C(F)(F)F)cc1` [Compound 1-92, 4-[4-(3-dimethylcarbamoyl-4-{(4'-trifluoromethylbiphenyl-2-carbonyl)amino}phenyl)butyryloxy]benzoic acid 3-hydroxypropyl ester], the results for the remaining at 10 min in data set [1], in data set [2] and in data set [3] were 0%, 102% and 71%, respectively. In addition, the values for the remaining at 1 h in data set [1], in data set [2] and in data set [3] were 0%, 107% and 6%, respectively.
For the compound `CN(C)C(=O)c1cc(CCC(=O)Oc2ccccc2)ccc1NC(=O)c1ccccc1-c1ccc(C(F)(F)F)cc1` [Compound 1-1, 3-{3-dimethylcarbamoyl-4-[(4'-trifluoromethylbiphenyl-2-carbonyl)amino]phenyl}propionic acid phenyl ester], the remaining at 10 min came to 0% in data set [1], 101% in data set [2] and 80% in data set [3]. In addition, the remaining at 1 h turned out to be 0% in data set [1], 104% in data set [2] and 40% in data set [3].
`CC(C)n1nnc(-c2ccc(OC(=O)CCCc3ccc(NC(=O)c4ccccc4-c4ccc(C(F)(F)F)cc4)c(C(=O)N(C)C)c3)cc2)n1` [Compound 1-115, 4-(3-dimethylcarbamoyl-4-{(4'-trifluoromethylbiphenyl-2-carbonyl)amino}phenyl)butyric acid 4-(2-isopropyl-2H-tetrazol-5-yl)phenyl ester]: the remaining at 10 min in data set [1] was 0%; in data set [2], 98%; in data set [3], 85%. Further, the remaining at 1 h in data set [1] came out at 0%; in data set [2], 98%; in data set [3], 40%.
Regarding `Cc1cccc(COC(=O)c2ccc(OC(=O)CCCc3ccc(NC(=O)c4ccccc4-c4ccc(C(F)(F)F)cc4)c(C(=O)N(C)C)c3)cc2)n1` [Compound 1-101, 4-[4-(3-dimethylcarbamoyl-4-{(4'-trifluoromethylbiphenyl-2-carbonyl)amino}phenyl)butyryloxy]benzoic acid 6-methylpyridin-2-ylmethyl ester], the remaining at 10 min in data set [1] came to 3%; in data set [2], 100%; in data set [3], 42%. In addition, the results for the remaining at 1 h in data set [1], in data set [2] and in data set [3] were 0%, 103% and 0%, respectively.
On to `COC(=O)c1ccc(OC(=O)CCCc2ccc(NC(=O)c3ccccc3-c3ccc(C(F)(F)F)cc3)c(C(=O)N(C)C)c2)cc1OC` [Compound 1-17, 4-(4-{3-dimethylcarbamoyl-4-[(4'-trifluoromethylbiphenyl-2-carbonyl)amino]phenyl}butyryloxy) -2-methoxybenzoic acid methyl ester], for which the figures for the remaining at 10 min in data set [1], in data set [2] and in data set [3] were 0%, 100% and 0%, respectively. In addition, the values for the remaining at 1 h in data set [1], in data set [2] and in data set [3] were 0%, 105% and 0%, respectively.
On to `COC(=O)c1cc(C)c(OC(=O)CCCc2ccc(NC(=O)c3ccc(C)nc3-c3ccc(C(F)(F)F)cc3)c(C(=O)N(C)C)c2)c(Cl)c1` [Compound 1-35, 3-chloro-4-[4-(3-dimethylcarbamoyl-4-{[6-methyl-2-(4-trifluoromethylphenyl)pyridine-3-carbonyl]amino}phenyl)butyryloxy]-5-methylbenzoic acid methyl ester], for which the figures for the remaining at 10 min in data set [1], in data set [2] and in data set [3] were 5%, 100% and 43%, respectively. Also, the values for the remaining at 1 h in data set [1], in data set [2] and in data set [3] were 0%, 105% and 0%, respectively.
`CC(C)OCCOC(=O)c1ccc(OC(=O)CCCc2ccc(NC(=O)c3ccccc3-c3ccc(C(F)(F)F)cc3)c(C(=O)N(C)C)c2)cc1` [Compound 1-76, 4-[4-(3-dimethylcarbamoyl-4-{(4'-trifluoromethylbiphenyl-2-carbonyl)amino}phenyl)butyryloxy]benzoic acid 2-isopropoxyethyl ester]: the results for the remaining at 10 min in data set [1], in data set [2] and in data set [3] were 5%, 99% and 50%, respectively. The remaining at 1 h was determined as 2% in data set [1], 100% in data set [2] and 1% in data set [3].
Take `COC(=O)c1cc(C)c(OC(=O)CCCc2ccc(NC(=O)c3ccc(C)nc3-c3ccc(C(F)(F)F)cc3)c(C(=O)N(C)C)c2)c(C)c1` [Compound 1-65, 4-[4-(3-dimethylcarbamoyl-4-{[6-methyl-2-(4-trifluoromethylphenyl)pyridine-3-carbonyl]amino}phenyl)butyryloxy]-3,5-dimethylbenzoic acid methyl ester]: the figures for the remaining at 10 min in data set [1], in data set [2] and in data set [3] were 8%, 104% and 98%, respectively. The remaining at 1 h in data set [1] is 0%; in data set [2], 104%; in data set [3], 94%.
With `COc1cc(C(=O)OC(C)C)cc(Cl)c1OC(=O)CCCc1ccc(NC(=O)c2ccc(C)nc2-c2ccc(C(F)(F)F)cc2)c(C(=O)N(C)C)c1` [Compound 1-37, 3-chloro-4-[4-(3-dimethylcarbamoyl-4-{[6-methyl-2-(4-trifluoromethylphenyl)pyridine-3-carbonyl]amino}phenyl)butyryloxy]-5-methoxybenzoic acid isopropyl ester], the remaining at 10 min came out at 37% in data set [1], 99% in data set [2] and 0% in data set [3]. For the same compound, the remaining at 1 h in data set [1] came out at 11%; in data set [2], 99%; in data set [3] it was 0%.
